≈ marks a conversion by molar mass, not a printed value. Each block holds one molecule with its values, some of them ahead of it.
Tests used:
Assay in all cases: ≥ marks a high value that may be exact or a test limit, other limits are often not marked, values filed in µg/mL are converted to µM
[1] = system: Cronobacter sakazakii ATCC BAA-894
[2] = system: Staphylococcus aureus NCTC 8325-4
Escherichia coli O111 = system: Escherichia coli O111
[3] = system: Listeria monocytogenes NCTC 11994
[4] = system: Pseudomonas putida ATCC 49128
[5] = system: Staphylococcus aureus NCTC 7428
[6] = system: Escherichia coli NCIMB 11843
[7] = system: Staphylococcus aureus RN4220
[8] = system: Staphylococcus aureus SA113
Escherichia coli O157:H7 = system: Escherichia coli O157:H7
[9] = system: Staphylococcus aureus RF122
[10] = system: Pseudomonas fluorescens NCIMB 9046
[11] = system: Cronobacter sakazakii DPC 6440
[12] = system: Salmonella enterica subsp. enterica serovar Typhimurium DT104
[13] = system: Salmonella enterica subsp. enterica serovar Typhimurium LT2
[14] = system: Klebsiella pneumoniae NCIMB 13218
[15] = system: Staphylococcus aureus Newman
[16] = system: Cronobacter sakazakii DSM 4485
[17] = system: Cronobacter muytjensii ATCC 51329
[18] = system: Escherichia coli ATCC 25922
[19] = system: Staphylococcus aureus ATCC 43300
[20] = system: Cryptococcus neoformans var. grubii H99
[21] = system: Klebsiella pneumoniae ATCC 700603
[22] = system: Candida albicans ATCC 90028
Escherichia coli K-12 = system: Escherichia coli K-12
[23] = system: Staphylococcus aureus JE2
[24] = system: Pseudomonas aeruginosa ATCC 27853
[25] = system: Acinetobacter baumannii ATCC 19606
[26] = system: Mannheimia haemolytica Serovar 1
Bibersteinia trehalosi = system: Bibersteinia trehalosi
Klebsiella pneumoniae = system: Klebsiella pneumoniae
[27] = system: Salmonella enterica subsp. arizonae
[28] = system: Mannheimia haemolytica Serovar 2
Pasteurella multocida = system: Pasteurella multocida
[29] = system: Corynebacterium pseudotuberculosis ATCC 19410
Aspergillus fumigatus = system: Aspergillus fumigatus
Staphylococcus aureus = system: Staphylococcus aureus
[30] = system: Mannheimia haemolytica Serovar 6
[31] = system: Pseudomonas aeruginosa PAO1
[32] = system: Escherichia coli KpC+001812446
[33] = system: Staphylococcus aureus ATCC 25923
[34] = system: Pseudomonas aeruginosa H1001
Enterobacter cloacae = system: Enterobacter cloacae
[35] = system: Enterococcus faecalis ATCC 19433
Escherichia coli BL21 = system: Escherichia coli BL21
Acinetobacter baumannii = system: Acinetobacter baumannii
[36] = system: Pseudomonas aeruginosa PA14
[37] = system: Klebsiella pneumoniae KpC+001825971
[38] = system: Staphylococcus aureus ATCC 12600
[39] = system: Klebsiella pneumoniae ATCC 13883
[40] = system: Pseudomonas aeruginosa ATCC 10662
[41] = system: Staphylococcus epidermidis ATCC 1435

SMILES: CC[C@H](C)[C@H](N)C(=O)N[C@@H](CCCCN)C(=O)N[C@@H](Cc1cnc[nH]1)C(=O)N[C@@H](CCC(N)=O)C(=O)NCC(=O)N[C@@H](CC(C)C)C(=O)N1CCC[C@H]1C(=O)N[C@@H](CCC(N)=O)C(=O)N[C@@H](CCC(=O)O)C(=O)O [IKHQGLPQE]
MIC [1]: ≥ 625 µM
MIC [2]: ≥ 1250 µM
MIC (Escherichia coli O111): ≥ 1910 µM
MIC [3]: ≥ 953 µM
MIC [4]: ≥ 953 µM
MIC [5]: ≥ 1910 µM
MIC [6]: ≥ 1250 µM
MIC [7]: ≥ 1250 µM
MIC [8]: ≥ 1250 µM
MIC (Escherichia coli O157:H7): ≥ 1910 µM
MIC [9]: ≥ 1250 µM
MIC [10]: ≥ 1250 µM
MIC [11]: ≥ 625 µM
MIC [12]: ≥ 1910 µM
MIC [13]: ≥ 1250 µM
MIC [14]: ≥ 1250 µM
MIC [15]: ≥ 1250 µM
MIC [16]: ≥ 625 µM
MIC [17]: ≥ 625 µM

SMILES: CC[C@H](C)[C@H](NC(=O)[C@H](CCCCN)NC(=O)[C@H](CC(C)C)NC(=O)[C@H](CCCN=C(N)N)NC(=O)[C@H](CC(C)C)NC(=O)[C@H](CCCCN)NC(=O)[C@@H](N)CCCCN)C(=O)N[C@@H](C)C(=O)N[C@@H](Cc1ccccc1)C(=O)N[C@@H](CCCCN)C(=O)O [KKLRLKIAFK]
MIC [18]: 16 µM (≈ 19.9 µg/mL)
MIC [32]: 22.6 µM (≈ 28.2 µg/mL)
MIC [33]: > 32 µM
MIC [34]: 20 µM (≈ 24.9 µg/mL)
MIC (Enterobacter cloacae): ≥ 32 µM
MIC [35]: 5.66 µM (≈ 7.04 µg/mL)
MIC (Escherichia coli BL21): 4 µM (≈ 4.98 µg/mL)
MIC (Staphylococcus aureus): > 32 µM
MIC (Acinetobacter baumannii): ≥ 32 µM
MIC [24]: > 32 µM
MIC [31]: 32 µM (≈ 39.8 µg/mL)
MIC [36]: ≥ 32 µM
MIC [37]: ≥ 32 µM
MIC [38]: ≥ 32 µM
MIC [39]: ≥ 32 µM

SMILES: CC[C@H](C)[C@H](NC(=O)CNC(=O)[C@H](CCCN=C(N)N)NC(=O)[C@H](Cc1ccccc1)NC(=O)[C@@H](NC(=O)[C@H](Cc1cnc[nH]1)NC(=O)[C@H](Cc1cnc[nH]1)NC(=O)[C@H](Cc1ccccc1)NC(=O)[C@@H](N)Cc1ccccc1)[C@@H](C)CC)C(=O)N[C@H](C(=O)N[C@@H](Cc1cnc[nH]1)C(=O)N[C@H](C(=O)NCC(=O)N[C@@H](CCCCN)C(=O)N[C@H](C(=O)N[C@@H](CCCCN)C(=O)N[C@@H](Cc1cnc[nH]1)C(=O)N[C@@H](CCCN=C(N)N)C(=O)N[C@@H](CC(C)C)C(=O)N[C@H](C(=O)N[C@H](C(=O)NCC(N)=O)[C@@H](C)O)C(C)C)[C@@H](C)O)C(C)C)C(C)C [FFHHIFRGIVHVGKTKHRLVTG]
MIC [18]: 1.2 µM (≈ 3.1 µg/mL)
MIC [33]: 2.4 µM (≈ 6.2 µg/mL)
MIC [40]: 9.66 µM (≈ 25 µg/mL)
MIC (Staphylococcus aureus): 2.4 µM (≈ 6.2 µg/mL)
MIC (Acinetobacter baumannii): 1.2 µM (≈ 3.1 µg/mL)
MIC [41]: 1.2 µM (≈ 3.1 µg/mL)

Continued, in another order:

MIC [18]: > 19.5 µM
MIC [19]: 9.73 µM (≈ 16 µg/mL)
MIC [20]: 9.73 µM (≈ 16 µg/mL)
MIC [21]: > 19.5 µM
MIC [22]: 19.5 µM (≈ 32 µg/mL)
MIC (Escherichia coli K-12): 19.5 µM (≈ 32 µg/mL)
MIC [23]: 9.73 µM (≈ 16 µg/mL)
MIC [24]: > 19.5 µM
MIC [25]: 19.5 µM (≈ 32 µg/mL)
SMILES: CC[C@H](C)[C@H](NC(=O)[C@@H](NC(=O)[C@H](CO)NC(=O)[C@H](C)NC(=O)[C@@H](NC(=O)[C@H](CCCCN)NC(=O)[C@H](CCCN=C(N)N)NC(=O)[C@@H](NC(=O)[C@@H](NC(=O)[C@H](CC(=O)O)NC(=O)[C@H](Cc1ccccc1)NC(=O)[C@H](CC(C)C)NC(=O)CN)C(C)C)[C@@H](C)CC)C(C)C)C(C)C)C(=O)NCC(=O)NCC(=O)N[C@@H](CC(C)C)C(=O)O [GLFDVIRKVASVIGGL]

MIC (Bibersteinia trehalosi): 11.1 µM (≈ 20 µg/mL)
MIC (Klebsiella pneumoniae): > 11.1 µM
MIC [27]: 11.1 µM (≈ 20 µg/mL)
MIC (Pasteurella multocida): 5.55 µM (≈ 10 µg/mL)
MIC [29]: 11.1 µM (≈ 20 µg/mL)
MIC (Aspergillus fumigatus): 18.5 µM (≈ 33.3 µg/mL)
MIC (Staphylococcus aureus): > 11.1 µM
MIC [31]: 1.83 µM (≈ 3.3 µg/mL)
SMILES: CC[C@H](C)[C@H](NC(=O)[C@H](Cc1cnc[nH]1)NC(=O)[C@@H](NC(=O)[C@@H](NC(=O)[C@H](CCCCN)NC(=O)[C@H](CCCN=C(N)N)NC(=O)[C@@H](NC(=O)[C@@H](NC(=O)[C@H](CCCN=C(N)N)NC(=O)[C@H](CCCN=C(N)N)NC(=O)[C@@H](N)CC(C)C)[C@@H](C)CC)[C@@H](C)CC)[C@@H](C)CC)[C@@H](C)CC)C(=O)N[C@H](C(=O)N[C@@H](CCCCN)C(=O)N[C@@H](CCCCN)C(=O)O)[C@@H](C)CC [LRRIIRKIIHIIKK]
MIC [26]: 2.78 µM (≈ 5 µg/mL)
MIC [28]: 3.72 µM (≈ 6.7 µg/mL)
MIC [30]: 9.28 µM (≈ 16.7 µg/mL)
